# Measurements: patent US20190381198A1, “RA[…]-GAL[…] FOR PET IMAGING OF SENESCENCE” (Eberhard Karls Universitaet Tuebingen Medizinische Fakultaet, priority 2017, published 2019)
# What was measured:
# [1] = stability of tracer 9 in mouse serum (radio-HPLC); assay type: in vitro ADME; details: 37° C., 1 hour
# Experimental: The tracer 9 is incubated at 37° C. in mouse serum to assess its stability. After 1 hour, 2 volume equivalents of acetonitrile are added and the mixture is centrifuged for 5 minutes. The supernatant is examined directly using radio-HPLC. Serum stability of tracer 9 after 1 h (FIG. 3a) vs tracer 9 (FIG. 3b) is derivable from FIG. 3.
# [2] = system: HCT116 cells; test: in vitro tracer uptake in senescent vs control HCT116 cells (gamma counter); assay type: cell-based; details: 3.7-7.4 MBq of tracer, 50 minutes
# Experimental: (§1) HCT116 (FIG. 4a) and Hras cells (FIG. 4b) are treated with […] of tracer and incubated for 50 minutes. The cells are measured in a gamma-counter, with the activity normalized to the number of cells used.
# (§2) The PET-tracer is tested in two different models in vitro. In HCT116 cells senescence is induced by overnight incubation with doxorubicin, followed by 4 days of culture under normal conditions. Senescence in a HRas driven liver progenitor cell line with a doxycycline regulatable p53-specific shRNA. After induction of senescence, both cell lines are incubated with 3.7-7.4 MBq of tracer for 50 minutes. The cells are then washed, counted and measured in a gamma counter. The activity taken up by the cells is analyzed and normalized to a million cells.
# [3] = system: HRas driven liver progenitor cell line; test: in vitro tracer uptake in senescent vs control HRas driven liver progenitor cells (gamma counter); assay type: cell-based; details: 3.7-7.4 MBq of tracer, 50 minutes
# Experimental: (§3) As the second model, transgenic liver progenitor cell line (Hras) was used for subcutaneous allografts in nude mice. The cell line expresses Hras^G12v and p53shRNA under doxycycline (doxy) conditions. After the removal of doxycycline, the p53 mRNA can be restored and translated to p53 protein. The high amount of p53 triggers senescence. The animals bearing Hras tumors received doxy-water (0.2 mg/ml) for tumor development and 14 days, after removal of doxy-water, the PET/MRT scans are performed with compound 9.
# as §1, §2
# [4] = system: HCT116 tumors; test: in vivo PET tracer uptake in s.c. HCT116 xenograft tumors, doxorubicin-induced senescence; design: species or system nude mice; details: for TMR (tumor-to-muscle ratio) / in vivo tracer uptake: PET; for in vivo tracer uptake: i.v.
# Experimental: A xenograft model of colorectal cancer cell line (HCT116) with therapy induced senescence, doxorubicin is used as a chemotherapeutic. Senescence is induced in HCT116 xenograft tumors by intravenous (i.v.) administration of doxorubicin (10 mg/kg). Through tail vain of the mice, 5 days later dynamic PET/MRT scans (1 h) with compound 9 are performed.
# (§4) In vivo tests are performed in nude mice bearing s.c. HCT116 or HRas driven liver progenitor cells. Mice bearing HCT116 tumors are treated with doxorubicin (10 mg/Kg bodyweight) and imaged 4 days after the onset of senescence. Mice bearing Hras driven tumor are supplied with doxycycline in their drinking water, which has been later removed to induce senescence. After induction of senescence, the tracer is administered i.v. and PET scans are performed. The %ID/cc and tumor-to-muscle ratios are determined through quantitative analysis of the PET data, permitting evaluation of the tracers. In vitro senescent HCT116 cells show an uptake of 11 kBq/1 mio cells, while the uptake in non-senescent control cells is only 4 kBq/1 mio cells.
# The in vivo tracer uptake in senescent and non-senescent HCT116 tumors (FIG. 5) is 1.7+/−0.7 (n=7) vs 1.1+/−0.4 (n=5) %ID/cc respectively; the respective TMR values are 1.7 and 1.1. […] Both %ID/cc and TMR are higher in senescent vs control tumors. The excised tumors are subjected to ex vivo analyses.
# [5] = system: Hras tumors; test: in vivo PET tracer uptake in s.c. HRas driven tumors, senescence by doxycycline removal; design: species or system nude mice; details: for TMR (tumor-to-muscle ratio) / tracer uptake: PET; for tracer uptake: i.v.
# Experimental: as §3, §4
# Both %ID/cc and TMR are higher in senescent vs control tumors. The excised tumors are subjected to ex vivo analyses. […] Senescent tumor slices also show higher X-Gal staining than control sections. The nonsenescent tumor expresses GFP, which can be visualized with optical imaging.
# [6] = system: beta-galactosidase; details: 30° C., 30 minutes, citrate buffer pH 5.5
# Experimental: To assess whether tracer 9 is a substrate of beta-galactosidase, it is incubated at 30° C. for 30 minutes in citrate buffer of pH 5.5 containing commercially available betagalactosidase (Sigma). The reaction is stopped by adding 2 volume equivalents of acetonitrile, followed by 5 minutes of centrifugation. The supernatant is examined directly using radio-HPLC. […] The expected radioactive metabolite is compared with the authentic non-radioactive standard (FIG. 2). […] Compound 11 is galactose.
smiles,measurement,setting,value
OC[C@H]1O[C@@H](Oc2cccnc2[18F])[C@H](O)[C@@H](O)[C@H]1O [tracer 9],serum stability,[1],integrity remains largely intact
same,uptake in senescent cells compared to controls,"[2]; HCT116 cells, activity normalized to number of cells",significantly higher uptake compared to the controls
same,uptake,[2]; non-senescent control HCT116 cells,4 kBq/1 mio cells
same,uptake,[2]; senescent HCT116 cells,11 kBq/1 mio cells
same,uptake in senescent cells compared to controls,"[3]; Hras cells, activity normalized to number of cells",significantly higher uptake compared to the controls
same,uptake,[3]; non-senescent HRas driven liver progenitor cells,63 kBq/1 mio cells
same,uptake,[3]; senescent HRas driven liver progenitor cells,192 kBq/1 mio cells
same,"autoradiography of excised tumors, ex vivo","[4]; HCT116 tumor sections, senescent vs control",higher tracer uptake in the senescent tumor section vs control
same,TMR (tumor-to-muscle ratio),[4]; non-senescent HCT116 tumors,1.1
same,in vivo tracer uptake,"[4]; non-senescent HCT116 tumors, n=5",1.1+/−0.4 %ID/cc
same,TMR (tumor-to-muscle ratio),[4]; senescent HCT116 tumors,1.7
same,in vivo tracer uptake,"[4]; senescent HCT116 tumors, n=7",1.7+/−0.7 %ID/cc
same,"autoradiography of excised tumors, ex vivo","[5]; HRas tumor sections, senescent vs control",higher tracer uptake in the senescent tumor section vs control
same,TMR (tumor-to-muscle ratio),[5]; control HRas tumors,1.2
same,tracer uptake,"[5]; control HRas tumors, n=11",0.9+/−0.3 %ID/cc
same,TMR (tumor-to-muscle ratio),[5]; senescent HRas tumors,2.1
same,tracer uptake,"[5]; senescent HRas tumors, n=16",1.5+/−0.3 %ID/cc
same,conversion by beta-galactosidase (radioactive metabolite by radio-HPLC),[6],produces the radioactive metabolite with the same retention time as the non-radioactive 2-fluoropyridinol
